{"source": "the supplement of paper PMC10307832", "test_in_all_cases": "relative viability (nuclei count vs DMSO), 5 days (fraction); higher = more cells survive", "key": {"COR-L23": {"tested_on": "COR-L23", "how_it_was_run": "(§1)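 Lung cancer cell lines in 1536-well plates got either a single drug or a fixed anchor-drug dose together with five library-drug doses (not always all listed) in √10 steps, by pin tool, on the day after seeding. Nuclei were counted after 5 days, and relative viability is the treated-to-vehicle ratio of nuclei counts. Values are medians of duplicate plates.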"}, "NCI-H2405": {"tested_on": "NCI-H2405", "how_it_was_run": "as §1"}, "NCI-H1793": {"tested_on": "NCI-H1793", "how_it_was_run": "as §1"}, "NCI-H1650": {"tested_on": "NCI-H1650", "how_it_was_run": "as §1"}, "NCI-H1993": {"tested_on": "NCI-H1993", "how_it_was_run": "as §1"}, "ABC-1": {"tested_on": "ABC-1", "how_it_was_run": "as §1"}, "HARA": {"tested_on": "HARA", "how_it_was_run": "as §1"}, "LK-2": {"tested_on": "LK-2", "how_it_was_run": "as §1"}, "HCC-366": {"tested_on": "HCC-366", "how_it_was_run": "as §1"}, "NCI-H2228": {"tested_on": "NCI-H2228", "how_it_was_run": "as §1"}, "NCI-H1944": {"tested_on": "NCI-H1944", "how_it_was_run": "as §1"}, "NCI-H838": {"tested_on": "NCI-H838", "how_it_was_run": "as §1"}, "HCC-15": {"tested_on": "HCC-15", "how_it_was_run": "as §1"}, "NCI-H2009": {"tested_on": "NCI-H2009", "how_it_was_run": "as §1"}, "NCI-H23": {"tested_on": "NCI-H23", "how_it_was_run": "as §1"}, "NCI-H1734": {"tested_on": "NCI-H1734", "how_it_was_run": "as §1"}, "EMC-BAC-2": {"tested_on": "EMC-BAC-2", "how_it_was_run": "as §1"}, "A-427": {"tested_on": "A-427", "how_it_was_run": "as §1"}, "ChaGo-K-1": {"tested_on": "ChaGo-K-1", "how_it_was_run": "as §1"}, "NCI-H2023": {"tested_on": "NCI-H2023", "how_it_was_run": "as §1"}, "UMC-11": {"tested_on": "UMC-11", "how_it_was_run": "as §1"}, "LC-2-ad": {"tested_on": "LC-2-ad", "how_it_was_run": "as §1"}, "SK-LU-1": {"tested_on": "SK-LU-1", "how_it_was_run": "as §1"}, "HCC-78": {"tested_on": "HCC-78", "how_it_was_run": "as §1"}}}
{"smiles": "C[C@@H]1CN(CC(=O)Nc2ccc3c(c2)Cc2cccc(-c4cc(=O)cc(N5CCOCC5)o4)c2S3)C[C@H](C)O1", "note": "+ CS(=O)(=O)N1CCN(Cc2cc3nc(-c4cccc5[nH]ncc45)nc(N4CCOCC4)c3s2)CC1 [Pictilisib] (partner 1 µM)", "values": [{"measurement": "relative viability", "setting": "COR-L23; first compound 0.04 µM", "value": 0.854}, {"measurement": "relative viability", "setting": "COR-L23; first compound 0.1265 µM", "value": 0.785}, {"measurement": "relative viability", "setting": "COR-L23; first compound 0.4 µM", "value": 0.745}, {"measurement": "relative viability", "setting": "COR-L23; first compound 4 µM", "value": 0.755}, {"measurement": "relative viability", "setting": "NCI-H2405; first compound 0.04 µM", "value": 0.414}, {"measurement": "relative viability", "setting": "NCI-H2405; first compound 0.1265 µM", "value": 0.461}, {"measurement": "relative viability", "setting": "NCI-H2405; first compound 0.4 µM", "value": 0.358}, {"measurement": "relative viability", "setting": "NCI-H2405; first compound 4 µM", "value": 0.406}, {"measurement": "relative viability", "setting": "NCI-H1793; first compound 0.04 µM", "value": 0.374}, {"measurement": "relative viability", "setting": "NCI-H1793; first compound 0.1265 µM", "value": 0.297}, {"measurement": "relative viability", "setting": "NCI-H1793; first compound 0.4 µM", "value": 0.346}, {"measurement": "relative viability", "setting": "NCI-H1793; first compound 4 µM", "value": 0.335}, {"measurement": "relative viability", "setting": "NCI-H1650; first compound 0.04 µM", "value": 0.32}, {"measurement": "relative viability", "setting": "NCI-H1650; first compound 0.1265 µM", "value": 0.605}, {"measurement": "relative viability", "setting": "NCI-H1650; first compound 0.4 µM", "value": 0.651}, {"measurement": "relative viability", "setting": "NCI-H1650; first compound 4 µM", "value": 0.621}, {"measurement": "relative viability", "setting": "NCI-H1993; first compound 0.04 µM", "value": 0.76}, {"measurement": "relative viability", "setting": "NCI-H1993; first compound 0.1265 µM", "value": 0.927}, {"measurement": "relative viability", "setting": "NCI-H1993; first compound 0.4 µM", "value": 0.994}, {"measurement": "relative viability", "setting": "NCI-H1993; first compound 4 µM", "value": 0.912}, {"measurement": "relative viability", "setting": "ABC-1; first compound 0.1265 µM", "value": 0.69}, {"measurement": "relative viability", "setting": "ABC-1; first compound 0.4 µM", "value": 0.636}, {"measurement": "relative viability", "setting": "ABC-1; first compound 4 µM", "value": 0.854}, {"measurement": "relative viability", "setting": "HARA; first compound 0.04 µM", "value": 0.383}, {"measurement": "relative viability", "setting": "HARA; first compound 0.1265 µM", "value": 0.37}, {"measurement": "relative viability", "setting": "HARA; first compound 0.4 µM", "value": 0.226}, {"measurement": "relative viability", "setting": "HARA; first compound 4 µM", "value": 0.372}, {"measurement": "relative viability", "setting": "LK-2; first compound 0.1265 µM", "value": 0.634}, {"measurement": "relative viability", "setting": "LK-2; first compound 0.4 µM", "value": 0.607}, {"measurement": "relative viability", "setting": "LK-2; first compound 4 µM", "value": 0.667}, {"measurement": "relative viability", "setting": "HCC-366; first compound 0.04 µM", "value": 0.151}, {"measurement": "relative viability", "setting": "HCC-366; first compound 0.1265 µM", "value": 0.142}, {"measurement": "relative viability", "setting": "HCC-366; first compound 0.4 µM", "value": 0.138}, {"measurement": "relative viability", "setting": "HCC-366; first compound 4 µM", "value": 0.112}, {"measurement": "relative viability", "setting": "NCI-H2228; first compound 0.04 µM", "value": 0.355}, {"measurement": "relative viability", "setting": "NCI-H2228; first compound 0.1265 µM", "value": 0.256}, {"measurement": "relative viability", "setting": "NCI-H2228; first compound 0.4 µM", "value": 0.372}, {"measurement": "relative viability", "setting": "NCI-H2228; first compound 4 µM", "value": 0.472}, {"measurement": "relative viability", "setting": "NCI-H1944; first compound 0.1265 µM", "value": 0.328}, {"measurement": "relative viability", "setting": "NCI-H1944; first compound 0.4 µM", "value": 0.336}, {"measurement": "relative viability", "setting": "NCI-H1944; first compound 4 µM", "value": 0.33}, {"measurement": "relative viability", "setting": "NCI-H838; first compound 0.04 µM", "value": 0.472}, {"measurement": "relative viability", "setting": "NCI-H838; first compound 0.1265 µM", "value": 0.402}, {"measurement": "relative viability", "setting": "NCI-H838; first compound 0.4 µM", "value": 0.451}, {"measurement": "relative viability", "setting": "NCI-H838; first compound 4 µM", "value": 0.29}, {"measurement": "relative viability", "setting": "HCC-15; first compound 0.04 µM", "value": 0.815}, {"measurement": "relative viability", "setting": "HCC-15; first compound 0.1265 µM", "value": 0.649}, {"measurement": "relative viability", "setting": "HCC-15; first compound 0.4 µM", "value": 0.796}, {"measurement": "relative viability", "setting": "HCC-15; first compound 4 µM", "value": 0.636}, {"measurement": "relative viability", "setting": "NCI-H2009; first compound 0.04 µM", "value": 0.909}, {"measurement": "relative viability", "setting": "NCI-H2009; first compound 0.1265 µM", "value": 0.84}, {"measurement": "relative viability", "setting": "NCI-H2009; first compound 0.4 µM", "value": 0.816}, {"measurement": "relative viability", "setting": "NCI-H2009; first compound 4 µM", "value": 0.588}, {"measurement": "relative viability", "setting": "NCI-H23; first compound 0.04 µM", "value": 0.448}, {"measurement": "relative viability", "setting": "NCI-H23; first compound 0.1265 µM", "value": 0.499}, {"measurement": "relative viability", "setting": "NCI-H23; first compound 0.4 µM", "value": 0.483}, {"measurement": "relative viability", "setting": "NCI-H23; first compound 4 µM", "value": 0.543}, {"measurement": "relative viability", "setting": "NCI-H1734; first compound 0.04 µM", "value": 0.526}, {"measurement": "relative viability", "setting": "NCI-H1734; first compound 0.1265 µM", "value": 0.489}, {"measurement": "relative viability", "setting": "NCI-H1734; first compound 0.4 µM", "value": 0.468}, {"measurement": "relative viability", "setting": "NCI-H1734; first compound 4 µM", "value": 0.487}, {"measurement": "relative viability", "setting": "EMC-BAC-2; first compound 0.04 µM", "value": 0.559}, {"measurement": "relative viability", "setting": "EMC-BAC-2; first compound 0.1265 µM", "value": 0.528}, {"measurement": "relative viability", "setting": "EMC-BAC-2; first compound 0.4 µM", "value": 0.429}, {"measurement": "relative viability", "setting": "EMC-BAC-2; first compound 4 µM", "value": 0.514}, {"measurement": "relative viability", "setting": "A-427; first compound 0.04 µM", "value": 0.581}, {"measurement": "relative viability", "setting": "A-427; first compound 0.1265 µM", "value": 0.674}, {"measurement": "relative viability", "setting": "A-427; first compound 0.4 µM", "value": 0.679}, {"measurement": "relative viability", "setting": "A-427; first compound 4 µM", "value": 0.675}, {"measurement": "relative viability", "setting": "ChaGo-K-1; first compound 0.1265 µM", "value": 0.633}, {"measurement": "relative viability", "setting": "ChaGo-K-1; first compound 0.4 µM", "value": 0.577}, {"measurement": "relative viability", "setting": "ChaGo-K-1; first compound 4 µM", "value": 0.686}, {"measurement": "relative viability", "setting": "NCI-H2023; first compound 0.04 µM", "value": 0.115}, {"measurement": "relative viability", "setting": "NCI-H2023; first compound 0.1265 µM", "value": 0.262}, {"measurement": "relative viability", "setting": "NCI-H2023; first compound 0.4 µM", "value": 0.197}, {"measurement": "relative viability", "setting": "NCI-H2023; first compound 4 µM", "value": 0.198}, {"measurement": "relative viability", "setting": "UMC-11; first compound 0.04 µM", "value": 0.769}, {"measurement": "relative viability", "setting": "UMC-11; first compound 0.1265 µM", "value": 0.791}, {"measurement": "relative viability", "setting": "UMC-11; first compound 0.4 µM", "value": 0.75}, {"measurement": "relative viability", "setting": "UMC-11; first compound 4 µM", "value": 0.649}, {"measurement": "relative viability", "setting": "LC-2-ad; first compound 0.04 µM", "value": 1.12}, {"measurement": "relative viability", "setting": "LC-2-ad; first compound 0.1265 µM", "value": 0.43}, {"measurement": "relative viability", "setting": "LC-2-ad; first compound 0.4 µM", "value": 0.29}, {"measurement": "relative viability", "setting": "LC-2-ad; first compound 4 µM", "value": 0.537}, {"measurement": "relative viability", "setting": "SK-LU-1; first compound 0.04 µM", "value": 0.657}, {"measurement": "relative viability", "setting": "SK-LU-1; first compound 0.1265 µM", "value": 0.594}, {"measurement": "relative viability", "setting": "SK-LU-1; first compound 0.4 µM", "value": 0.702}, {"measurement": "relative viability", "setting": "SK-LU-1; first compound 4 µM", "value": 0.484}, {"measurement": "relative viability", "setting": "HCC-78; first compound 0.04 µM", "value": 0.208}, {"measurement": "relative viability", "setting": "HCC-78; first compound 0.1265 µM", "value": 0.2}, {"measurement": "relative viability", "setting": "HCC-78; first compound 0.4 µM", "value": 0.168}, {"measurement": "relative viability", "setting": "HCC-78; first compound 4 µM", "value": 0.265}]}
